Results as given in patent US7273885B2, “Inhibitors of serine proteases, particularly HCV NS3-NS4A protease” (Vertex Pharmaceuticals Incorporated, priority 2002, dated 2007).
Read-outs that look alike come from different tables or passages of the source.

What was measured:
[1] = system: Cells containing hepatitis C virus (HCV) replicon; experiment: HCV replicon cell assay (Taqman RT-PCR of HCV RNA); format: cell-based
Experimental: HCV Replicon Cell Assay Protocol
Cells containing hepatitis C virus (HCV) replicon were maintained in DMEM containing 10% fetal bovine serum (FBS), 0.25 mg per ml of G418, with appropriate supplements (media A).
On day 1, replicon cell monolayer was treated with a trypsin:EDTA mixture, removed, and then media A was diluted into a final concentration of 100,000 cells per ml wit. 10,000 cells in 100 ul were plated into each well of a 96-well tissue culture plate, and cultured overnight in a tissue culture incubator at 37° C.
On day 2, compounds (in 100% DMSO) were serially diluted into DMEM containing 2% FBS, 0.5% DMSO, with appropriate supplements (media B). The final concentration of DMSO was maintained at 0.5% throughout the dilution series.
Media on the replicon cell monolayer was removed, and then media B containing various concentrations of compounds was added. Media B without any compound was added to other wells as no compound controls.
Cells were incubated with compound or 0.5% DMSO in media B for 48 hours in a tissue culture incubator at 37° C. At the end of the 48-hour incubation, the media was removed, and the replicon cell monolayer was washed once with PBS and stored at −80° C. prior to RNA extraction.
Culture plates with treated replicon cell monolayers were thawed, and a fixed amount of another RNA virus, such as Bovine Viral Diarrhea Virus (BVDV) was added to cells in each well. RNA extraction reagents (such as reagents from RNeasy kits) were added to the cells immediately to avoid degradation of RNA. Total RNA was extracted according the instruction of manufacturer with modification to improve extraction efficiency and consistency. Finally, total cellular RNA, including HCV replicon RNA, was eluted and stored at −80° C. until further processing.
A Taqman real-time RT-PCR quantification assay was set up with two sets of specific primers and probe. One was for HCV and the other was for BVDV. Total RNA extractants from treated HCV replicon cells was added to the PCR reactions for quantification of both HCV and BVDV RNA in the same PCR well. Experimental failure was flagged and rejected based on the level of BVDV RNA in each well. The level of HCV RNA in each well was calculated according to a standard curve run in the same PCR plate. The percentage of inhibition or decrease of HCV RNA level due to compound treatment was calculated using the DMSO or no compound control as 0% of inhibition. The IC50 (concentration at which 50% inhibition of HCV RNA level is observed) was calculated from the titration curve of any given compound.

[2] = molecular target: HCV NS3-NS4A protease (tNS3 with KK4A) (Hepatitis C virus genotype 1a, UniProt P27958); experiment: HCV Ki assay (HPLC microbore separation of 5AB substrate and products); format: biochemical
HCV NS3-NS4A protease (tNS3 with KK4A), sequence (P27958 1027-1208): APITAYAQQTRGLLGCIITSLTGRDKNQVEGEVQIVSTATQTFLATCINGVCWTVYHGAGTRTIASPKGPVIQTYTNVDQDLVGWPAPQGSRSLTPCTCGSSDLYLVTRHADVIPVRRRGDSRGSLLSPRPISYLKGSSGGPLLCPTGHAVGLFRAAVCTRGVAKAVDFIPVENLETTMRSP
Experimental: HPLC Microbore Method for Separation of 5AB Substrate and Products
• Substrate: • NH2-Glu-Asp-Val-Val-(alpha)Abu-Cys-Ser-Met-Ser-Tyr-COOH
A stock solution of 20 mM 5AB (or concentration of your choice) was made in DMSO w/ 0.2M DTT. This was stored in aliquots at −20 C.
Buffer: 50 mM HEPES, pH 7.8; 20% glycerol; 100 mM NaCl
Total assay volume was 100 μL
The buffer, KK4A, DTT, and tNS3 were combined; distributed 78 μL each into wells of 96 well plate. This was incubated at 30 C for ˜5–10 min.
2.5 μL of appropriate concentration of test compound was dissolved in DMSO (DMSO only for control) and added to each well. This was incubated at room temperature for 15 min.
Initiated reaction by addition of 20 μL of 250 μM 5AB substrate (25 μM concentration is equivalent or slightly lower than the Km for 5AB).
Incubated for 20 min at 30 C.
Terminated reaction by addition of 25 μL of 10% TFA
Transferred 120 μL aliquots to HPLC vials
Separated SMSY product from substrate and KK4A by the following method:
Microbore Separation Method:
Instrumentation: Agilent 1100
• Degasser G1322A • Binary pump G1312A • Autosampler G1313A • Column thermostated chamber G1316A • Diode array detector G1315A Column:
Phenomenex Jupiter; 5 micron C18; 300 angstroms; 150×2 mm; P/O 00F-4053-B0 • Column thermostat: 40 C • Injection volume: 100 μL • Solvent A=HPLC grade water+0.1% TFA • Solvent B=HPLC grade acetonitrile+0.1% TFA
• Stop time: 17 min • Post-run time: 10 min.

[3] = 50% inhibition of HCV RNA level, 48-hour incubation, HCV replicon cells, read-out: IC50

Compound: CCCC(NC(=O)[C@@H]1C[C@@H]2CCCC[C@@H]2N1C(=O)[C@@H](NC(=O)[C@@H](NC(=O)c1[nH]c(C)c(C)c1C(C)=O)C1CCCCC1)C(C)(C)C)C(=O)C(=O)NC1CC1 (stereo partly shown) [Compound 33a]
- IC50 [1, 3]: < 500 nM
- Ki [2]: < 500 nM

Compound: CCC[C@@H](NC(=O)[C@@H]1C[C@@H]2CCCC[C@@H]2N1C(=O)[C@@H](NC(=O)[C@@H](NC(=O)c1[nH]c(C)c(C)c1C(C)=O)C1CCCCC1)C(C)(C)C)C(=O)C(=O)NC1CC1 [Compound 41a]
- IC50 [1, 3]: < 500 nM
- Ki [2]: 1000 to 5000 nM

Compound: CC(=O)c1c(C(=O)N[C@H](C(=O)N[C@H](C(=O)N2[C@H](C(=O)N[C@@H](CC(F)F)C(=O)C(=O)NC3CC3)C[C@@H]3CCCC[C@@H]32)C(C)(C)C)C2CCCCC2)[nH]c(C)c1C [Compound 61a]
- IC50 [1, 3]: < 500 nM
- Ki [2]: < 500 nM

Compound: CCC[C@H](NC(=O)[C@@H]1[C@@H](C(C)C)CCN1C(=O)[C@@H](NC(=O)[C@@H](NC(=O)c1[nH]c(C)c(C)c1C(C)=O)C1CCCCC1)C(C)(C)C)C(=O)C(=O)NC1CC1 [Compound 64]
- IC50 [1, 3]: < 500 nM
- Ki [2]: < 500 nM

Compound: CCCC(NC(=O)[C@@H]1C[C@@H]2CCCC[C@@H]2N1C(=O)[C@@H](NC(=O)[C@@H](NC(=O)c1cnccn1)C1CCCCC1)C(C)C)C(=O)C(=O)NC1CC1 (stereo partly shown) [Compound 3a]
- IC50 ([1]; 48 h): 1000 to 5000 nM
- Ki [2]: < 500 nM

Compound: CCC[C@H](NC(=O)[C@@H]1C[C@@H]2CCCC[C@@H]2N1C(=O)[C@@H](NC(=O)[C@@H](NC(=O)c1ccc2cccnc2n1)C1CCCCC1)C(C)(C)C)C(=O)C(=O)NC1CC1 [Compound 36a]
- IC50 [1, 3]: 1000 to 5000 nM
- Ki [2]: < 500 nM

Compound: CCC[C@H](NC(=O)[C@@H]1C[C@@H]2CCCC[C@@H]2N1C(=O)[C@@H](NC(=O)[C@@H](NC(=O)c1[nH]c2ccccc2c1C(C)=O)C1CCCCC1)C(C)(C)C)C(=O)C(=O)NC1CC1 [Compound 39a, 3-Acetyl-1H-indole-2-carboxylic acid (cyclohexyl-{1-[2-(1-cyclopropylaminooxalyl-butylcarbamoyl)-octahydro-indole-1-carbonyl]-2,2-dimethyl-propylcarbamoyl}-methyl)-amide]
- IC50 [1, 3]: < 500 nM
- Ki [2]: < 500 nM

Compound: CCC[C@H](NC(=O)[C@@H]1C[C@@H]2CCCC[C@@H]2N1C(=O)[C@@H](NC(=O)[C@@H](NC(=O)c1ccn[nH]1)C1CCCCC1)C(C)(C)C)C(=O)C(=O)NC1CC1 [Compound 15a]
- IC50 [1, 3]: < 500 nM
- Ki [2]: < 500 nM

Compound: CCC[C@H](NC(=O)[C@@H]1C[C@@H]2CCCC[C@@H]2N1C(=O)[C@@H](NC(=O)[C@@H](NC(=O)C1(O)CCCC1)C1CCCCC1)C(C)(C)C)C(=O)C(=O)NC1CC1 [Compound 22a]
- IC50 [1, 3]: 1000 to 5000 nM
- Ki [2]: 500 to 1000 nM

Compound: CCC[C@H](NC(=O)[C@@H]1C[C@@H]2CCCC[C@@H]2N1C(=O)[C@@H](NC(=O)[C@@H](NC(=O)c1[nH]c(C)c(C(C)=O)c1C#N)C1CCCCC1)C(C)(C)C)C(=O)C(=O)NC1CC1 [Compound 52a]
- IC50 [1, 3]: < 500 nM
- Ki [2]: < 500 nM

Compound: CCC[C@H](NC(=O)[C@@H]1C[C@@H]2CCCC[C@@H]2N1C(=O)[C@@H](NC(=O)[C@@H](NC(=O)c1cnc2ccccc2n1)C1CCCCC1)C(C)(C)C)C(=O)C(=O)NC1CC1 [Compound 35a]
- IC50 [1, 3]: 1000 to 5000 nM
- Ki [2]: < 500 nM

Compound: CCC[C@H](NC(=O)[C@@H]1C[C@@H]2CCCC[C@@H]2N1C(=O)[C@@H](NC(=O)[C@@H](NC(=O)c1cc(C(C)(C)C)n[nH]1)C1CCCCC1)C(C)(C)C)C(=O)C(=O)NC1CC1 [Compound 16a]
- IC50 [1, 3]: 1000 to 5000 nM
- Ki [2]: < 500 nM

Compound: CCC[C@H](NC(=O)[C@@H]1C[C@@H]2CCCC[C@@H]2N1C(=O)[C@@H](NC(=O)[C@@H](NC(=O)c1cc(CC)c(C(C)=O)[nH]1)C1CCCCC1)C(C)(C)C)C(=O)C(=O)NC1CC1 [Compound 42a]
- IC50 [1, 3]: < 500 nM
- Ki [2]: < 500 nM

Compound: CCC[C@H](NC(=O)[C@@H]1C[C@@H]2CCCC[C@@H]2N1C(=O)[C@@H](NC(=O)[C@@H](NC(=O)C(=O)C(C)C)C1CCCCC1)C(C)(C)C)C(=O)C(=O)NC1CC1 [Compound 24a]
- IC50 [1, 3]: 1000 to 5000 nM
- Ki [2]: < 500 nM

Compound: CCCC(NC(=O)[C@@H]1C[C@@H]2CCCC[C@@H]2N1C(=O)[C@@H](NC(=O)[C@@H](NC(=O)c1cnccn1)C1CCCCC1)C(C)(C)C)C(=O)C(=O)NC1CC1 (stereo partly shown) [Compound 4a]
- IC50 [1, 3]: 500 to 1000 nM
- Ki [2]: < 500 nM

Compound: CCC[C@H](NC(=O)[C@@H]1C[C@@H]2CCCC[C@@H]2N1C(=O)[C@@H](NC(=O)[C@@H](NC(=O)c1cc2cc(C(C)=O)ccc2[nH]1)C1CCCCC1)C(C)(C)C)C(=O)C(=O)NC1CC1 [Compound 40a, 5-Acetyl-1H-indole-2-carboxylic acid (cyclohexyl-{1-[2-(1-cyclopropylaminooxalyl-butylcarbamoyl)-octahydro-indole-1-carbonyl]-2,2-dimethyl-propylcarbamoyl}-methyl)-amide]
- IC50 [1, 3]: < 500 nM
- Ki [2]: < 500 nM

Compound: C=CCNC(=O)C(=O)[C@H](CCC)NC(=O)[C@@H]1C[C@@H]2CCCC[C@@H]2N1C(=O)[C@@H](NC(=O)[C@@H](NC(=O)c1cnccn1)C1CCCCC1)C(C)(C)C [Compound 51a]
- IC50 [1, 3]: 500 to 1000 nM
- Ki [2]: < 500 nM

Compound: CCC[C@H](NC(=O)[C@@H]1C[C@@H]2CCCC[C@@H]2N1C(=O)[C@@H](NC(=O)[C@@H](NC(=O)[C@@](C)(O)c1ccccc1)C1CCCCC1)C(C)(C)C)C(=O)C(=O)NC1CC1 [Compound 19a]
- IC50 [1, 3]: 500 to 1000 nM
- Ki [2]: < 500 nM

Compound: CCC[C@H](NC(=O)[C@@H]1C[C@@H]2CCCC[C@@H]2N1C(=O)[C@@H](NC(=O)[C@@H](NC(=O)c1[nH]c(C)c(C(C)=O)c1C)C1CCCCC1)C(C)(C)C)C(=O)C(=O)NC1CC1 [Compound 29a]
- IC50 [1, 3]: 500 to 1000 nM
- Ki [2]: < 500 nM

Compound: CCC[C@H](NC(=O)[C@@H]1C[C@@H]2CCCC[C@@H]2N1C(=O)[C@@H](NC(=O)[C@@H](NC(=O)c1cc(Cl)c(Cl)[nH]1)C1CCCCC1)C(C)(C)C)C(=O)C(=O)NC1CC1 [Compound 43a]
- IC50 [1, 3]: < 500 nM
- Ki [2]: < 500 nM

Compound: CCC[C@H](NC(=O)[C@@H]1C[C@@H]2CCCC[C@@H]2N1C(=O)[C@@H](NC(=O)[C@@H](NC(=O)c1ccco1)C1CCCCC1)C(C)(C)C)C(=O)C(=O)NC1CC1 [Compound 27a]
- IC50 [1, 3]: 1000 to 5000 nM
- Ki [2]: < 500 nM

Compound: CCC[C@H](NC(=O)[C@@H]1C[C@@H]2CCCC[C@@H]2N1C(=O)[C@@H](NC(=O)[C@@H](NC(=O)c1[nH]c(C)c(C(=O)c2ccccc2)c1C#N)C1CCCCC1)C(C)(C)C)C(=O)C(=O)NC1CC1 [Compound 34a]
- IC50 [1, 3]: 1000 to 5000 nM
- Ki [2]: < 500 nM

Compound: CCC[C@H](NC(=O)[C@@H]1C[C@@H]2CCCC[C@@H]2N1C(=O)[C@@H](NC(=O)[C@@H](NC(=O)c1[nH]c(C)c(C)c1C(C)=O)C1CCCCC1)C(C)(C)C)C(=O)C(=O)NC1CC1 [Compound 25a]
- IC50 [1, 3]: < 500 nM
- Ki [2]: < 500 nM

Compound: CCC[C@H](NC(=O)[C@@H]1[C@H]2CC[C@H](C2)N1C(=O)[C@@H](NC(=O)[C@@H](NC(=O)c1[nH]c(C)c(C)c1C(C)=O)C1CCCCC1)C(C)(C)C)C(=O)C(=O)NC1CC1 [Compound 65]
- IC50 [1, 3]: < 500 nM
- Ki [2]: < 500 nM

Compound: CCC[C@H](NC(=O)[C@@H]1C[C@@H]2CCCC[C@@H]2N1C(=O)[C@@H](NC(=O)[C@@H](NC(=O)[C@@H]1Cc2ccccc2N1)C1CCCCC1)C(C)(C)C)C(=O)C(=O)NC1CC1 [Compound 46a]
- IC50 [1, 3]: 1000 to 5000 nM
- Ki [2]: < 500 nM

Compound: CCC[C@H](NC(=O)[C@@H]1C[C@@H]2CCCC[C@@H]2N1C(=O)[C@@H](NC(=O)[C@@H](NC(=O)C(=O)Nc1ccccc1)C1CCCCC1)C(C)(C)C)C(=O)C(=O)NC1CC1 [Compound 21a]
- IC50 ([1]; 48 h): < 500 nM
- Ki [2]: < 500 nM
